One data set concerns the target T1, BACE1 (Homo sapiens, UniProt P56817).
T1 construct: Human HEK293 cells which are stably transfected with a vector expressing a cDNA of the human APP wt gene (APP695); endogenous in cells; host or cells: HEK293 stably transfected with human APP695 wt
Nature of the data set: Cellular Aβ-lowering assay (Aβ40 ELISA). The conditions noted are these: HEK293 cells stably expressing human APP wt (APP695); Aβ40 in supernatant after 18-20 hrs; read-out: BACE1 cell act. Aβ40 IC50. It is filed as cell-based. The procedure, abridged:
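Secreted Aβ40 in the supernatant was measured by sandwich ELISA (C-terminal Aβ40 capture, HRP-4G8 detection, 450 nm) against an Aβ peptide standard curve.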
A general note: An ELISA detects its analyte on a solid surface through an enzyme-linked reagent.

Data set [1] addresses T2, recombinant human cathepsin E (Homo sapiens, UniProt P14091).
T2 construct: purchased R&D Systems
T2 sequence (P14091 54-396): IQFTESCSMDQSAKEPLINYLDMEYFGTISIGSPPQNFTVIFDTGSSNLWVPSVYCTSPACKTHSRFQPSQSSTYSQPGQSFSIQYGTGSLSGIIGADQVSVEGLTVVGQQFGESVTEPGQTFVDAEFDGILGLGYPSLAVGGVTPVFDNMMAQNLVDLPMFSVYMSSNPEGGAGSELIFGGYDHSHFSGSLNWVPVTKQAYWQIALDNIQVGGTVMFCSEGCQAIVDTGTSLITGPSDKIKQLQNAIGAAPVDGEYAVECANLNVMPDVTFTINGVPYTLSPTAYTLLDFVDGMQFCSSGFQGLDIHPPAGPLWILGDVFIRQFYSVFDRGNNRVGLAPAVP
Nature of the data set: Cathepsin E fluorescent substrate kinetic assay. It is filed as biochemical. The conditions noted are these: pH 4.5, substrate MR121-[…]. From the text: Cathepsin D and Cathepsin E Fluorescent Substrate Kinetic Assays
The MR121 fluorescence assays described below are based on the fact that MR121 forms a non-fluorescent ground state complex with tryptophan. In solution this formation occurs at millimolar concentrations of tryptophan. The mechanism can be used to design a generic biochemical assay for proteases. A substrate peptide is labeled at the N-terminus with tryptophan and at the C-terminus with the fluorophore MR121 (for cathepsin D the 10 amino acid peptide […]-MR121 was used; for cathepsin E, MR121-[…] was used). In absence of protease activity, the substrates remain intact and the MR121 fluorescence is reduced by the high local Trp-concentration. If the substrates are cleaved by the enzymes the MR121 fluorescence is recovered.
The fluorescent substrate cathepsin D and cathepsin E kinetic assays were performed at room temperature in 384-well microtiter plates (black with clear flat bottom, non binding surface plates from Corning) in a final volume of 51 μl. The test compounds were serially diluted in DMSO (15 concentrations, ⅓ dilution steps) and 1 μl of diluted compounds were mixed for 10 min with 40 μl of cathepsin D (from human liver, Calbiochem) diluted in assay buffer (100 mM sodium acetate, 0.05% BSA, pH 5.5; final concentration: 200 nM) or with 40 μl of recombinant human cathepsin E (R&D Systems) diluted in assay buffer (100 mM sodium acetate, 0.05% BSA, pH 4.5; final concentration: 0.01 nM). After addition of 10 μl of the cathepsin D substrate […]-MR121 diluted in cathepsin D assay buffer (final concentration: 300 nM) or […] cathepsin E substrate MR121-[…] diluted in cathepsin E assay buffer (final concentration: 300 nM), the plates were strongly shaken for 2 minutes. The enzymatic reaction was followed in a plate: vision reader (Perkin Elmer) (excitation wavelength: 630 nm; emission: 695 nm) for at least 30 minutes in a kinetic measurement detecting an increase of MR121 fluorescence during the reaction time. The slope in the linear range of the kinetic was calculated and the IC50 of the test compounds were determined using a four parameter equation for curve fitting.

A short description of data set [2]: Detection of glutathione conjugates. It is filed as in vitro ADME, human. Also on record: key: NF: in vitro no significant adduct formation relative to control. Particulars: in vitro, relative to control. The text has this:
Detection of Glutathione Conjugates
The assay conditions for the detection of glutathione conjugates follow the procedure described by C. M. Dieckhaus et al.

SMILES strings stand for the structures.

Usually IC50 stands for the concentration needed to halve the response being measured.

T1 sequence (P56817 46-501): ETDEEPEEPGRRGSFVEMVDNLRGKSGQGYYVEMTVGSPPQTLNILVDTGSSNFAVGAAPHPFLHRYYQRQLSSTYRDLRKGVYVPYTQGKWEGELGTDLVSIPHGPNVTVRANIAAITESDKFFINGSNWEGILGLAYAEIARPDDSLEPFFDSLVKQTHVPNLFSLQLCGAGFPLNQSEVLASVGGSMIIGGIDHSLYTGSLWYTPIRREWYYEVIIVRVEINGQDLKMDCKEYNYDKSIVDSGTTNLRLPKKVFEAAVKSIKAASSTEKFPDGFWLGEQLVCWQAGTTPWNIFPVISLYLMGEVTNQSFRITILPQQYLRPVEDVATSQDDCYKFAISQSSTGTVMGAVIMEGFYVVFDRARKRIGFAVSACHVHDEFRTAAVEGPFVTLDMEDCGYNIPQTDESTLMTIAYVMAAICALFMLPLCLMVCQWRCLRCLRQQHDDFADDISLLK

Regarding `N#Cc1ccc(C(=O)Nc2ccc(F)c([C@@]3(CF)N=C(N)O[C@@H]4CC(F)(F)C[C@@H]43)c2)nc1` [Example 3, 5-Cyano-pyridine-2-carboxylic acid [(S)-3-((1R,2R)-2-amino-6,6-difluoro-4-fluoromethyl-4,4a,5,6,7,7a-hexahydro-cyclopenta[e][1,3]oxazin-4-yl)-4-fluoro-phenyl]-amide], the IC50 at BACE1 was 1.5 nM; in data set [1], above 200000 nM. Besides, the “GSH human (glutathione adduct formation)” value in data set [2] was “NF”.
For `NC1=N[C@](CF)(c2cc(NC(=O)c3ccc(F)cn3)ccc2F)[C@H]2CC(F)(F)C[C@H]2O1` [Example 7, 5-Fluoro-pyridine-2-carboxylic acid [(S)-3-((1R,2R)-2-amino-6,6-difluoro-4-fluoromethyl-4,4a,5,6,7,7a-hexahydro-cyclopenta[e][1,3]oxazin-4-yl)-4-fluoro-phenyl]-amide], in that order: 16.6 nM, 149000 nM and “NF”.
Take `NC1=N[C@](CF)(c2cc(NC(=O)c3cnc(C(F)F)cn3)ccc2F)[C@H]2CC(F)(F)C[C@H]2O1` [Example 24, 5-Difluoromethyl-pyrazine-2-carboxylic acid [(S)-3-((1R,2R)-2-amino-6,6-difluoro-4-fluoromethyl-4,4a,5,6,7,7a-hexahydro-cyclopenta[e][1,3]oxazin-4-yl)-4-fluoro-phenyl]-amide]: the half-maximal inhibitory concentration (IC50) on BACE1 is 7.9 nM; in data set [1], above 200000 nM. Also, the “GSH human (glutathione adduct formation)” value in data set [2] was “NF”.
Taken in the same sequence, the figures for `N#Cc1ccc(C(=O)Nc2ccc(F)c([C@@]3(C(F)F)N=C(N)O[C@@H]4CC(F)(F)C[C@@H]43)c2)nc1` [Example 36, 5-Cyano-pyridine-2-carboxylic acid [(S)-3-((1R,2R)-2-amino-4-difluoromethyl-6,6-difluoro-4,4a,5,6,7,7a-hexahydro-cyclopenta[e][1,3]oxazin-4-yl)-4-fluoro-phenyl]-amide] were 14.5 nM, above 200000 nM and “NF”.
For `COc1cnc(C(=O)Nc2ccc(F)c([C@@]3(C(F)F)N=C(N)O[C@@H]4CC(F)(F)C[C@@H]43)c2)cn1` [Example 42, 5-Methoxy-pyrazine-2-carboxylic acid [(S)-3-((1R,2R)-2-amino-4-difluoromethyl-6,6-difluoro-4,4a,5,6,7,7a-hexahydro-cyclopenta[e][1,3]oxazin-4-yl)-4-fluoro-phenyl]-amide], the IC50 on BACE1 was 30 nM; in data set [1], above 200000 nM. In data set [2], the “GSH human (glutathione adduct formation)” value is reported as “NF”.

Values taken from patent US8476264B2, “N-(3-(2-amino-6,6-difluoro-4,4A,5,6,7,7A-hexahydro-cyclopenta[E][1,3]oxazin-4-yl)-phenylamides as BACE1 inhibitors” (Hoffmann-La Roche Inc., priority 2011, dated 2013).
